Patent publication US9937121B2, “Hydrophilic external gel formulation capable of enhancing skin permeability of tacrolimus” (CHUNG-ANG UNIVERSITY INDUSTRY-ACADEMIC COOPERATION …, priority 2014, dated 2018)

Key:
[1] = poorly soluble in water and highly permeable; cited from earlier work
[2] = Solubility of tacrolimus in Transcutol P; type: physicochemical; conditions: room temperature
Text: Since tacrolimus is lipid-soluble and a formulation for delivering a drug is in a hydrophilic gel form, a solubilizer that can dissolve tacrolimus and then disperse tacrolimus well was needed. Also, in order to enhance the skin permeability of tacrolimus, Transcutol P was selected as a substance which can act as an enhancer for skin permeability. […] Carbopol 934P used as a polymeric base absorbs and attracts water well, has an ability to form a film, and thus is widely used as a moisturizer. Carnosine, which is a biocomponent present in human muscle and brain tissue, is known as a substance having excellent antioxidant activity, and appropriately adjusts the pH of a formulation for external application when applied to skin.

solubility of tacrolimus in Transcutol P [2]: 240 mg/g
SMILES: C=CC[C@@H]1/C=C(\C)C[C@H](C)C[C@H](OC)[C@H]2O[C@@](O)(C(=O)C(=O)N3CCCC[C@H]3C(=O)O[C@H](/C(C)=C/[C@@H]3CC[C@@H](O)[C@H](OC)C3)[C@H](C)[C@@H](O)CC1=O)[C@H](C)C[C@@H]2OC [tacrolimus, Tacrolimus]
BCS class [1]: class II
